Test results: BindingDB's records for doi:10.1016/j.ejmech.2015.01.009 (Universiti Teknologi Mara (Uitm), 2015)

Assay: Inhibition of alpha-glucosidase (unknown origin) using pNPG substrate incubated for 15 mins by microplate reader based method

Row | Structure (SMILES) | IC50 [µM]
1 | COc1cccc(/C=N/NC(=O)c2ccc(-c3nc4ccccc4s3)cc2)c1 | 11.1
2 | COc1cc(/C=N/NC(=O)c2ccc(-c3nc4ccccc4s3)cc2)cc(OC)c1 | 16.2
3 | COc1ccc(O)c(/C=N/NC(=O)c2ccc(-c3nc4ccccc4s3)cc2)c1 | 6.5
4 | O=C(N/N=C/c1ccccc1O)c1ccc(-c2nc3ccccc3s2)cc1 | 5.55
5 | O=C(N/N=C/c1ccc(F)c(Br)c1)c1ccc(-c2nc3ccccc3s2)cc1 | 28
6 | O=C(N/N=C/c1ccc(O)cc1O)c1ccc(-c2nc3ccccc3s2)cc1 | 5.58
7 | COc1cc(/C=N/NC(=O)c2ccc(-c3nc4ccccc4s3)cc2)ccc1O | 53.3
8 | O=C(N/N=C/c1ccccc1)c1ccc(-c2nc3ccccc3s2)cc1 | 8.05
9 | O=C(N/N=C/c1ccc([N+](=O)[O-])cc1)c1ccc(-c2nc3ccccc3s2)cc1 | 26.4
10 | O=C(N/N=C/c1ccc(O)cc1)c1ccc(-c2nc3ccccc3s2)cc1 | 11.3
11 | O=C(N/N=C/c1ccc(O)c(O)c1)c1ccc(-c2nc3ccccc3s2)cc1 | 15.1
12 | O=C(N/N=C/c1cccc(O)c1O)c1ccc(-c2nc3ccccc3s2)cc1 | 11.2
13 | O=C(N/N=C\c1ccccn1)c1ccc(-c2nc3ccccc3s2)cc1 | 10.2
14 | O=C(N/N=C/c1cccc(O)c1)c1ccc(-c2nc3ccccc3s2)cc1 | 9.21
15 | O=C(N/N=C/c1c(O)cc(O)cc1O)c1ccc(-c2nc3ccccc3s2)cc1 | 8.37

More lines, in order of falling IC50, values ahead:

Row | IC50 [µM] | Structure (SMILES)
16 | 44.8 | COc1ccc(/C=N/NC(=O)c2ccc(-c3nc4ccccc4s3)cc2)c(I)c1O
17 | 18.3 | COc1ccc(/C=N/NC(=O)c2ccc(-c3nc4ccccc4s3)cc2)cc1
18 | 12.8 | O=C(N/N=C\c1ccco1)c1ccc(-c2nc3ccccc3s2)cc1
19 | 11.8 | O=C(N/N=C/c1cc(O)ccc1O)c1ccc(-c2nc3ccccc3s2)cc1
20 | 11.1 | O=C(N/N=C/c1cc(O)cc(O)c1)c1ccc(-c2nc3ccccc3s2)cc1
21 | 8.48 | O=C(N/N=C/c1cccs1)c1ccc(-c2nc3ccccc3s2)cc1
22 | 8.07 | O=C(N/N=C/c1ccc(O)c(Br)c1)c1ccc(-c2nc3ccccc3s2)cc1
23 | 7.12 | O=C(N/N=C/c1ccc(F)cc1)c1ccc(-c2nc3ccccc3s2)cc1
24 | 6.97 | COc1ccc(/C=N/NC(=O)c2ccc(-c3nc4ccccc4s3)cc2)c(O)c1
25 | 5.31 | O=C(N/N=C/c1ccc(Cl)cc1)c1ccc(-c2nc3ccccc3s2)cc1
